Key:
KRAS WT = KRAS WT (Homo sapiens (Human), UniProt P01116); experiment: KRAS WT Biochemical Assay, BODIPY-GDP Exchange TR-FRET (Example 502; 0.06 nM KRAS WT, 15 nM GDP, 300 nM SOS1, 120-minute incubation); settings: read-out: KRas HTRF IC50
How it was run: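 Biotin-tagged recombinant KRAS WT (0.06 nM) preloaded with 15 nM GDP and Tb-streptavidin, 10 min RT, then exchange started with 300 nM SOS1 plus 300 nM BODIPY-GDP in HEPES pH 7.5 buffer with MgCl2. TR-FRET 520/490 ratio read after 120 min; normalized to DMSO and full-inhibition control; IC50 from 4-parameter fit.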

KRAS G12D = KRAS G12D (Homo sapiens (Human), UniProt P01116, G12D); experiment: KRAS G12D LoEnz Biochemical Assay, BODIPY-GDP Exchange TR-FRET (SOS1-mediated nucleotide exchange); settings: read-out: KRas (G12D) GDP HTRF IC50
Sequence of KRAS G12D (P01116-2 other isoform, or with tags, fused parts or gaps G12D): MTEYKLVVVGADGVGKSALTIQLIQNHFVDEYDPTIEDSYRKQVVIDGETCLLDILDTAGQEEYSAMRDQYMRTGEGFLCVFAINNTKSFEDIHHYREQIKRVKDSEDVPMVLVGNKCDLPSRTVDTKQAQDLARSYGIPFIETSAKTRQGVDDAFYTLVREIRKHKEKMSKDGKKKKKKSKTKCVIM

Sequence of KRAS WT (P01116-2 other isoform, or with tags, fused parts or gaps): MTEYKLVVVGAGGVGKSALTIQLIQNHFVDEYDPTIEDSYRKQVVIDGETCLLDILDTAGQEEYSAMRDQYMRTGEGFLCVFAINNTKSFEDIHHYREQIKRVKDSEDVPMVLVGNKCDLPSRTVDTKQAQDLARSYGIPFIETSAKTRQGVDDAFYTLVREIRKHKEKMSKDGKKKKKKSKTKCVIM

Row | Compound | IC50 (KRAS WT) [nM] | IC50 (KRAS G12D) [nM]
1 | Cc1c(F)c(N)cc(-c2nc3c4c(nc(OC[C@H]5[C@H](C#N)CCN5C)nc4c2F)N2C[C@H]4CC[C@H](N4)[C@H]2[C@H](C)O3)c1C(F)(F)F [Compound 161, (2R,3R)-2-((((5S,5aS,6S,9R)-2-(5-Amino-4° fluoro-3-methyl-2-(trifluoromethylo)henyl)-1-fluoro-5-methyl-5a,6,7,8,9,10-hexahydro-5H-4-oxa-3,10a,11,13,14-pentaaza-6,9-methanonaphtho[1,8-ab]heptalen-12-yl)oxy)methyl)-1-methylpyrrolidine-3-carbonitrile] | 1330 | 7.61
2 | Cc1c(F)c(N)cc(-c2nc3c4c(nc(OC[C@@]56CCCN5C[C@H](F)C6)nc4c2F)N2C[C@H]4CC[C@H](N4)[C@H]2[C@H](C)O3)c1CC(F)F [Compound 75, 4-(2,2-Difluoroethyl)-2-fluoro-5-((5S,5aS,6S,9R)-1-fluoro-12-(((2R,7aS)-2-fluorotetrahydro-1H-pyrrolizin-7a(5H)-yl)methoxy)-5-methyl-5a,6,7,8,9,10-hexahydro-5H-4-oxa-3,10a,11,13,14-pentaaza-6,9-methanonaphtho[1,8-ab]heptalen-2-yl)-3-methylaniline] | 11.8 | 0.13
3 | Cc1c(F)c(N)cc(-c2nc3c4c(nc(OCCCN5C[C@H]6C[C@@H]5CO6)nc4c2F)N2C[C@H]4CC[C@H](N4)[C@H]2[C@H](C)O3)c1C(F)(F)F [Compound 163, 5-((5S,5aS,6S,9R)-12-(3-((1R,4R)-2-Oxa-5-azabicyclo[2.2.1]heptan-5-yl)propoxy)-1-fluoro-5-methyl-5a,6,7,8,9,10-hexahydro-5H-4-oxa-3,10a,11,13,14-pentaaza-6,9-methanonaphtho[1,8-ab]heptalen-2-yl)-2-fluoro-3-methyl-4-(trifluoromethyl)aniline] | 19.6 | 0.11
4 | Cc1c(F)c(N)cc(-c2nc3c4c(nc(OC[C@H]5CC(F)(F)CN5C)nc4c2F)N2C[C@H]4CC[C@H](N4)[C@H]2[C@H](C)O3)c1C(F)(F)F [Compound 66, 5-((5S,5aS,6S,9R)-12-(((R)-4,4-difluoro-1-methylpyrrolidin-2-yl)methoxy)-1-fluoro-5-methyl-5a,6,7,8,9,10-hexahydro-5H-4-oxa-3,10a,11,13,14-pentaaza-6,9-methanonaphtho[1,8-ab]heptalen-2-yl)-2-fluoro-3-methyl-4-(trifluoromethyl)aniline] | 274 | 2.29
5 | Cc1c(F)c(N)cc(-c2nc3c4c(nc(OCC5(CN6CCO[C@H](C)C6)CC5)nc4c2F)N2C[C@H]4CC[C@H](N4)[C@H]2[C@H](C)O3)c1C(F)(F)F [Compound 168, 2-Fluoro-5-((5S,5aS,6S,9R)-1-fluoro-5-methyl-12-((1-(((R)-2-methylmorpholino)methyl)cyclopropyl)methoxy)-5a,6,7,8,9,10-hexahydro-5H-4-oxa-3,10a,11,13,14-pentaaza-6,9-methanonaphtho[1,8-ab]heptalen-2-yl)-3-methyl-4-(trifluoromethyl)aniline] | 1.68 | 0.12
6 | Cc1c(F)c(N)cc(-c2nc3c4c(nc(OC[C@@H]5CC[C@H]6COCCN65)nc4c2F)N2C[C@H]4CC[C@H](N4)[C@H]2[C@H](C)O3)c1CC(F)(F)F [Compound 113, 2-fluoro-5-((5S,5aS,6S,9R)-1-fluoro-12-(((6S,8aS)-hexahydro-1H-pyrrolo[2,1-c][1,4]oxazin-6-yl)methoxy)-5-methyl-5a,6,7,8,9,10-hexahydro-5H-4-oxa-3,10a,11,13,14-pentaaza-6,9-methanonaphtho[1,8-ab]heptalen-2-yl)-3-methyl-4-(2,2,2-trifluoroethyl)aniline] | 65.6 | 0.31
7 | Cc1c(F)c(N)cc(-c2nc3c4c(nc(OCCCN5CCOCC5)nc4c2F)N2C[C@H]4CC[C@H](N4)[C@H]2[C@H](C)O3)c1C(F)(F)F [Compound 138, 2-Fluoro-5-((5S,5aS,6S,9R)-1-fluoro-5-methyl-12-(3-morpholinopropoxy)-5a,6,7,8,9,10-hexahydro-5H-4-oxa-3,10a,11,13,14-pentaaza-6,9-methanonaphtho[1,8-ab]heptalen-2-yl)-3-methyl-4-(trifluoromethyl)aniline] | 115 | 0.42
8 | C[C@@H]1Oc2nc(-c3cc(O)cc4ccc(F)c(F)c34)c(F)c3nc(OC[C@@]45CCCN4C[C@H](F)C5)nc(c23)N2C[C@H]3CC[C@H](N3)[C@@H]12 [Compound 82, 5,6-Difluoro-4-((5S,5aS,6S,9aR)-1-fluoro-12-(((2R,7aS)-2-fluorotetrahydro-1H-pyrrolizin-7a(5H)-yl)methoxy)-5-methyl-5a,6,7,8,9,10-hexahydro-5H-4-oxa-3,10a,11,13,14-pentaaza-6,9-methanonaphtho[1,8-ab]heptalen-2-yl)naphthalen-2-ol] | 23500 | 360
9 | Cc1c(F)c(N)cc(-c2nc3c4c(nc(OC[C@]56COC[C@@H]5CCN6C)nc4c2F)N2C[C@H]4CC[C@H](N4)[C@H]2[C@H](C)O3)c1C(F)(F)F (single isomer, unassigned) [134 (isomer 2)] | 38.1 | 0.19
10 | Cc1c(F)c(N)cc(-c2nc3c4c(nc(OC[C@@H]5CC[C@H]6C[C@H](C(=O)N(C)C)CCN56)nc4c2F)N2C[C@H]4CC[C@H](N4)[C@H]2[C@H](C)O3)c1C(F)(F)F (single isomer, unassigned) [133 (isomer 4)] | 2.3 | 0.08
11 | Cc1c(F)c(N)cc(-c2nc3c4c(nc(OC[C@@]5(CC(F)F)CCCN5C)nc4c2F)N2C[C@H]4CC[C@H](N4)[C@H]2[C@H](C)O3)c1C(F)(F)F (single isomer, unassigned) [150 (isomer 1)] | 27.5 | 0.18
12 | Cc1c(F)c(N)cc(-c2nc3c4c(nc(OC[C@@]56CCCN5C[C@H](F)C6)nc4c2F)N2C[C@H]4CC[C@H](N4)[C@H]2[C@H](C)O3)c1S(C)(=O)=O [Compound 180, 2-Fluoro-5-((5S,5aS,6S,9R)-1-fluoro-12-(((2R,7aS)-2-fluorotetrahydro-1H-pyrrolizin-7a(5H)-yl)methoxy)-5-methyl-5a,6,7,8,9,10-hexahydro-5H-4-oxa-3,10a,11,13,14-pentaaza-6,9-methanonaphtho[1,8-ab]heptalene-2-yl)-3-methyl-4-(methylsulfonyl)aniline] | 2740 | 17.4
13 | Cc1cc(-c2nc3c4c(nc(OC[C@@]56CCCN5C[C@H](F)C6)nc4c2F)N2C[C@H]4CC[C@H](N4)[C@H]2[C@H](C)O3)c(F)c(N)n1 [Compound 177, 3-Fluoro-4-((5S,5aS,6S,9R)-1-fluoro-12-(((2R,7aS)-2-fluorotetrahydro-1H-pyrrolizin-7°(5H)-yl)methoxy)-5-methyl-5°,6,7,8,9,10-hexahydro-5H-4-oxa-3,10°,11,13,14-pentaaza-6,9-methanonaphtho[1,8-ab]heptalen-2-yl)-6-methylpyridin-2-amine] | 11700 | 126
14 | Cc1c(F)c(N)c(F)c(-c2nc3c4c(nc(OC[C@@]56CCCN5C[C@H](F)C6)nc4c2F)N2C[C@H]4CC[C@H](N4)[C@H]2[C@H](C)O3)c1CC(F)F [Compound 175, 4-(2,2-Difluoroethyl)-2,6-difluoro-3-((5S,5aS,6S,9R)-1-fluoro-12-(((2R,7aS)-2-fluorotetrahydro-1H-pyrrolizin-7a(5H)-yl)methoxy)-5-methyl-5a,6,7,8,9,10-hexahydro-5H-4-oxa-3,10a,11,13,14-pentaaza-6,9-methanonaphtho[1,8-ab]heptalen-2-yl)-5-methylaniline] | 108 | 3.39
15 | Cc1c(F)c(N)cc(-c2nc3c4c(nc(OC[C@]56CCCN5C[C@H](F)[C@@H]6F)nc4c2F)N2C[C@H]4CC[C@H](N4)[C@H]2[C@H](C)O3)c1C(F)(F)F (single isomer, unassigned) [143 (isomer 1)] | 28.1 | 0.22
16 | Cc1cc(N)cc(-c2nc3c4c(nc(OC[C@]56CCCN5CC(F)(F)C6)nc4c2F)N2C[C@H]4CC[C@H](N4)[C@H]2[C@H](C)O3)c1C(F)(F)F [Compound 69, 3-((5S,5aS,6S,9R)-12-(((R)-2,2-Difluorotetrahydro-1H-pyrrolizin-7a(5H)-yl)methoxy)-1-fluoro-5-methyl-5a,6,7,8,9,10-hexahydro-5H-4-oxa-3,10a,11,13,14-pentaaza-6,9-methanonaphtho[1,8-ab]heptalen-2-yl)-5-methyl-4-(trifluoromethyl)aniline] | 40.9 | 0.31
17 | Cc1c(F)c(N)cc(-c2nc3c4c(nc(OCC5CCC6CN(C)C(=O)CN56)nc4c2F)N2C[C@H]4CC[C@H](N4)[C@H]2[C@H](C)O3)c1C(F)(F)F (mixture of isomers) [Compound 124, 6-((((5S,5aS,6S,9R)-2-(5-Amino-4-fluoro-3-methyl-2-(trifluoromethyl)phenyl)-1-fluoro-5-methyl-5a,6,7,8,9,10-hexahydro-5H-4-oxa-3,10a,11,13,14-pentaaza-6,9-methanonaphtho[1,8-ab]heptalen-12-yl)oxy)methyl)-2-methylhexahydropyrrolo[1,2-a]pyrazin-3(4H)-one] | 619 | 1.74
18 | C[C@@H]1Oc2nc(-c3cc(N)cc(C(F)(F)F)c3C(F)(F)F)c(F)c3nc(OC[C@@]45CCCN4C[C@H](F)C5)nc(c23)N2C[C@H]3CC[C@H](N3)[C@@H]12 [Compound 115, 3-((5S,5aS,6S,9R)-1-fluoro-12-(((2R,7aS)-2-fluorotetrahydro-1H-pyrrolizin-7a(5H)-yl)methoxy)-5-methyl-5a,6,7,8,9,10-hexahydro-5H-4-oxa-3,10a,11,13,14-pentaaza-6,9-methanonaphtho[1,8-ab]heptalen-2-yl)-4,5-bis(trifluoromethyl)aniline] | 34.1 | 0.39

Source: patent publication US20240025919A1, “AZA-TETRACYCLIC OXAZEPINE COMPOUNDS AND USES THEREOF” (Genentech, Inc., priority 2022, published 2024)
